Patent US8378117B2 (priority 2005, dated 2013)
Several values for one entry are separate records, joined by “and”; a condition that tells them apart may be missing. Identical values can stand only once.

What was measured:
CB2 receptor = target: T1, CB2 receptor (Homo sapiens, UniProt P34972); experiment: Binding assay for CB2 agonists or inverse agonists (SK-N-MC membranes, [3H]-CP-55,940); conditions: for inhibition at 0.2 µM: read-out: CB2 receptor binding percent inhibition, test concentration 0.2 μM (footnote 2)
T1 construct: expressed in transfected cells
T1 sequence (P34972 whole entry): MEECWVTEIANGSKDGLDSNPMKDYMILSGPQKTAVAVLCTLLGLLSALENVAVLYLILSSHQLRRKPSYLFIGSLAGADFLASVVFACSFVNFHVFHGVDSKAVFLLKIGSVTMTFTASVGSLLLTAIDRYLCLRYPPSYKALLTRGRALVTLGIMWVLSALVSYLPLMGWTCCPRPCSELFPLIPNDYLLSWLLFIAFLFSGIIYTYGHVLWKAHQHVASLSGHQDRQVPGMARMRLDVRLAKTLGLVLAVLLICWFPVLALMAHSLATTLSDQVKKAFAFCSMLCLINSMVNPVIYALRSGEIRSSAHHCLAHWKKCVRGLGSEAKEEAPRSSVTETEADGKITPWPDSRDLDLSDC
How it was run: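 Membranes from SK-N-MC cells stably expressing human CB2 were incubated with radioligand and test compounds for 90 min at 30 °C in Tris-HCl buffer, pH 7.5, with MgCl2, EDTA and fatty-acid-free BSA. Filter-bound radioactivity was counted; IC50 was derived by linear regression of percent inhibition.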

CB1 receptor [1] = target: T2, CB1 receptor (Homo sapiens, UniProt P21554); experiment: Binding assay for CB1 agonists or inverse agonists (SK-N-MC membranes, [3H]-CP-55,940); conditions: for IC50: Cannabinoid CB1 Receptor Binding IC50, calculated by linear regression from percent inhibition at various test concentrations; for inhibition at 0.2 µM: read-out: CB1 receptor binding percent inhibition, test concentration 0.2 μM (footnote 2)
T2 construct: expressed in transfected cells
T2 sequence (P21554 whole entry): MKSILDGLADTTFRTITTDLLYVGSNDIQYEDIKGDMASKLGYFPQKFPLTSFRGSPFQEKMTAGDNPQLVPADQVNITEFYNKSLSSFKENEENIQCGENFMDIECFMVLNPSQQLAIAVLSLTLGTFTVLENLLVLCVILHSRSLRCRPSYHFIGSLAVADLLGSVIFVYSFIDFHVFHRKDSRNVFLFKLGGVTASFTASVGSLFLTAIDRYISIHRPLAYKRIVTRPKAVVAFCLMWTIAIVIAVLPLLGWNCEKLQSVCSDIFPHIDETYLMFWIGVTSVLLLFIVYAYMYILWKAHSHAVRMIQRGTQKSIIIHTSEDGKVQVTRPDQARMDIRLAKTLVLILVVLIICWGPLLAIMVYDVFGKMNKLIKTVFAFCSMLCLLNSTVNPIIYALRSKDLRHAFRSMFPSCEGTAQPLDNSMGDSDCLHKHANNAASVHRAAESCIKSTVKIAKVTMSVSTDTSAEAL
How it was run: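 Membranes from SK-N-MC cells stably expressing human CB1 incubated with compound and [3H]-CP-55,940 ([…]) for 90 min at 30° C in Tris-HCl pH 7.5, MgCl2, EDTA, fatty-acid-free BSA. Non-specific binding defined with 10 uM WIN 55,212; filtration, scintillation count; IC50 by linear regression.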

CB1 receptor [2] = target: T2, CB1 receptor; experiment: cell-based; conditions: CB1 Receptor Functional Inverse Agonist EC50, forskolin induced β-galactosidase activity, SK-N-MC cells
How it was run: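 SK-N-MC cells stably co-expressing human CB1 and a CRE-β-galactosidase reporter; forskolin-induced β-gal activity measured after compound treatment, as % of vehicle-treated cells (100%). EC50 by linear regression from concentration series; otherwise % change at a single concentration.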

Row | Compound | inhibition at 0.2 µM (CB2 receptor) [%] | IC50 (CB1 receptor [1]) | inhibition at 0.2 µM (CB1 receptor [1]) [%] | EC50 (CB1 receptor [2]) [nM] | inhibition at 1 µM (CB2 receptor; read-out: CB2 receptor binding percent inhibition, test concentration 1 μM (footnote 1)) [%] | CB1 receptor binding percent inhibition (CB1 receptor [1]; test concentration 0.2 μM (footnote 2), 0.2 µM) [%] | CB1 receptor binding average percent inhibition (CB1 receptor [1]; value shown is an average percent inhibition (footnote 5), concentration not given) [%]
1 | O=C(N[C@@H]1CCc2ccccc21)c1nn(-c2ccc(Cl)cc2Cl)c2c1CCCC/C2=C\c1ccc(F)cc1 [Cpd 207, (8E)-1-(2,4-dichloro-phenyl)-8-(4-fluoro-benzylidene)-1,4,5,6,7,8-hexahydro-cycloheptapyrazole-3-carboxylic acid (1R)-indan-1-ylamide] | 1 | 20 nM | 90 | 7 |  |  | 
2 | O=C(N[C@H]1c2ccccc2C[C@H]1O)c1nn(-c2ccc(Cl)cc2Cl)c2c1CCCC/C2=C\c1ccc(F)cc1 [Cpd 208, (8E)-1-(2,4-dichloro-phenyl)-8-(4-fluoro-benzylidene)-1,4,5,6,7,8-hexahydro-cycloheptapyrazole-3-carboxylic acid [(1S,2R)-2-hydroxy-indan-1-yl]-amide] | 31 | 70 nM | 76 | 10 |  |  | 
3 | O=C(NC1CCCc2ccccc21)c1nn(-c2ccc(Cl)cc2Cl)c2c1CCCC/C2=C\c1ccc(F)cc1 (stereo not shown) [Cpd 209, (8E)-1-(2,4-dichloro-phenyl)-8-(4-fluoro-benzylidene)-1,4,5,6,7,8-hexahydro-cycloheptapyrazole-3-carboxylic acid (1,2,3,4-tetrahydro-naphthalen-1-yl)-amide] | 8 | 30 nM | 88 | 10 |  |  | 
4 | COc1ccc(/C=C2\CCCCc3c(C(=O)NCc4ccccn4)nn(-c4ccc(Cl)cc4Cl)c32)cc1 [Cpd 210, (8E)-1-(2,4-dichloro-phenyl)-8-(4-methoxy-benzylidene)-1,4,5,6,7,8-hexahydro-cycloheptapyrazole-3-carboxylic acid (pyridin-2-ylmethyl)-amide] | 49 | 40 nM | 76 | 20 |  |  | 
5 | COc1ccc(/C=C2\CCCCc3c(C(=O)NC(C)(C)c4ccccc4)nn(-c4ccc(Cl)cc4Cl)c32)cc1 [Cpd 211, (8E)-1-(2,4-dichloro-phenyl)-8-(4-methoxy-benzylidene)-1,4,5,6,7,8-hexahydro-cycloheptapyrazole-3-carboxylic acid (1-methyl-1-phenyl-ethyl)-amide] | 37 | 7 nM | 92 | 20 |  |  | 
6 | COc1ccc(/C=C2\CCCCc3c(C(=O)N[C@H](C)c4ccccc4)nn(-c4ccc(Cl)cc4Cl)c32)cc1 [Cpd 212, (8E)-1-(2,4-dichloro-phenyl)-8-(4-methoxy-benzylidene)-1,4,5,6,7,8-hexahydro-cycloheptapyrazole-3-carboxylic acid [(1R)-1-phenyl-ethyl]-amide] | 42 | 6 nM | 94 | 20 |  |  | 
7 | COc1ccc(/C=C2\CCCCc3c(C(=O)N[C@@H](C)c4ccccc4)nn(-c4ccc(Cl)cc4Cl)c32)cc1 [Cpd 213, (8E)-1-(2,4-dichloro-phenyl)-8-(4-methoxy-benzylidene)-1,4,5,6,7,8-hexahydro-cycloheptapyrazole-3-carboxylic acid [(1S)-1-phenyl-ethyl]-amide] | 19 | 60 nM | 71 | 10 |  |  | 
8 | COc1ccc(/C=C2\CCCCc3c(C(=O)N[C@H](C)C4CCCCC4)nn(-c4ccc(Cl)cc4Cl)c32)cc1 [Cpd 214, (8E)-1-(2,4-dichloro-phenyl)-8-(4-methoxy-benzylidene)-1,4,5,6,7,8-hexahydro-cycloheptapyrazole-3-carboxylic acid [(1R)-1-cyclohexyl-ethyl]-amide] | 43 | 7 nM | 95 | 30 |  |  | 
9 | COc1ccc(/C=C2\CCCCc3c(C(=O)N[C@H](CO)c4ccccc4)nn(-c4ccc(Cl)cc4Cl)c32)cc1 [Cpd 215, (8E)-1-(2,4-dichloro-phenyl)-8-(4-methoxy-benzylidene)-1,4,5,6,7,8-hexahydro-cycloheptapyrazole-3-carboxylic acid [(1S)-2-hydroxy-1-phenyl-ethyl]-amide] | 24 | 10 nM | 88 | 10 |  |  | 
10 | COc1ccc(/C=C2\CCCCc3c(C(=O)N[C@@H]4CCc5ccccc54)nn(-c4ccc(Cl)cc4Cl)c32)cc1 [Cpd 216, (8E)-1-(2,4-dichloro-phenyl)-8-(4-methoxy-benzylidene)-1,4,5,6,7,8-hexahydro-cycloheptapyrazole-3-carboxylic acid (1R)-indan-1-ylamide] | 33 | 9 nM | 91 | 50 |  |  | 
11 | COc1ccc(/C=C2\CCCCc3c(C(=O)NN4CCCCC4)nn(-c4ccc(Cl)cc4Cl)c32)cc1 [Cpd 217, (8E)-1-(2,4-dichloro-phenyl)-8-(4-methoxy-benzylidene)-1,4,5,6,7,8-hexahydro-cycloheptapyrazole-3-carboxylic acid piperidin-1-ylamide] | 52 | 60 nM | 75 | 20 |  |  | 
12 | COc1ccc(/C=C2\CCCCc3c(C(=O)NC(C)c4ccccn4)nn(-c4ccc(Cl)cc4Cl)c32)cc1 (stereo not shown) [Cpd 222, (8E)-1-(2,4-dichloro-phenyl)-8-(4-methoxy-benzylidene)-1,4,5,6,7,8-hexahydro-cycloheptapyrazole-3-carboxylic acid (1-pyridin-2-yl-ethyl)-amide] | 41 | 30 nM | 48 | 30 |  |  | 
13 | CC(NC(=O)c1nn(-c2ccc(Cl)cc2Cl)c2c1CCCC/C2=C\c1ccc(F)cc1)c1ccccn1 (stereo not shown) [Cpd 224, (8E)-1-(2,4-dichloro-phenyl)-8-(4-fluoro-benzylidene)-1,4,5,6,7,8-hexahydro-cycloheptapyrazole-3-carboxylic acid (1-pyridin-2-yl-ethyl)-amide] | 4 | 8 nM | 87 | 4 |  |  | 
14 | C[C@@H](NC(=O)c1nn(-c2ccc(Cl)cc2Cl)c2c1CCCC/C2=C\c1ccc(F)cc1)c1ccccn1 [Cpd 225, (8E)-1-(2,4-dichloro-phenyl)-8-(4-fluoro-benzylidene)-1,4,5,6,7,8-hexahydro-cycloheptapyrazole-3-carboxylic acid [(1R)-1-pyridin-2-yl-ethyl]-amide] | 6 | 5 nM and 6 nM and 7 nM | 90 | 1 | 16 | 89 | 96
15 | COc1ccc(/C=C2\CCCCc3c(C(=O)NN4CC5CCCC5C4)nn(-c4ccc(Cl)cc4Cl)c32)cc1 (stereo not shown) [Cpd 226, (8E)-1-(2,4-dichloro-phenyl)-8-(4-methoxy-benzylidene)-1,4,5,6,7,8-hexahydro-cycloheptapyrazole-3-carboxylic acid (hexahydro-cyclopenta[c]pyrrol-2-yl)-amide] | 48 | 40 nM | 72 | 3 |  |  | 
16 | COc1ccc(/C=C2\CCCCc3c(C(=O)N[C@H](C)c4ccccn4)nn(-c4ccc(Cl)cc4Cl)c32)cc1 [Cpd 227, (8E)-1-(2,4-dichloro-phenyl)-8-(4-methoxy-benzylidene)-1,4,5,6,7,8-hexahydro-cycloheptapyrazole-3-carboxylic acid [(1R)-1-pyridin-2-yl-ethyl)-amide] | 19 | 9 nM | 90 | 2 |  |  | 
